Patent US12435080B2, “sGC stimulators” (Tisento Therapeutics Inc., priority 2016, dated 2025)
“And” between values parts separate entries of the source, which are not always exact repeats. Equal entries are not always repeated. Where two headings read alike, the source gives them in different places. Blank lines part the entries; values can stand above or below the compound they belong to.

Target: T1, sGC enzyme (Homo sapiens, UniProt Q02108+Q02153)
T1 construct: incorporated into these cells detect cGMP formed by the compounds stimulating the sGC enzyme; host or cells: HEK293 cells stably expressing GloSensor 40F cGMP biosensor
T1 sequence (Q02153 1-619): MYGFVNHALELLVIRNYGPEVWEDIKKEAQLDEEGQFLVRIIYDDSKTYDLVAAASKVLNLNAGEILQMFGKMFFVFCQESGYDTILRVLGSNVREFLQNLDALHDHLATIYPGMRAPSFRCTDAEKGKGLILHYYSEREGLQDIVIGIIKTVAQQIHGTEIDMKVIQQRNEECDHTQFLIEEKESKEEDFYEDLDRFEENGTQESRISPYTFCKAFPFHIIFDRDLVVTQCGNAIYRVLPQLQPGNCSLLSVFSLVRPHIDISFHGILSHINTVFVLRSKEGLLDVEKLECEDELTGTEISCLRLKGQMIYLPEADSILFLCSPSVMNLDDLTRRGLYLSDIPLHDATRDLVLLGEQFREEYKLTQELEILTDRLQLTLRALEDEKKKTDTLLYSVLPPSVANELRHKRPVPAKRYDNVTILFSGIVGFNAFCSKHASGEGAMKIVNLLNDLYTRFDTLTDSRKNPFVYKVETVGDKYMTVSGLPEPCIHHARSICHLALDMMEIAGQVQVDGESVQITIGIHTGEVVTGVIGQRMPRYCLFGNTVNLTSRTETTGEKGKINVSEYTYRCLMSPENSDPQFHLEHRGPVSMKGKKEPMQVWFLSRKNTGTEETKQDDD
T1 sequence (Q02108 1-690): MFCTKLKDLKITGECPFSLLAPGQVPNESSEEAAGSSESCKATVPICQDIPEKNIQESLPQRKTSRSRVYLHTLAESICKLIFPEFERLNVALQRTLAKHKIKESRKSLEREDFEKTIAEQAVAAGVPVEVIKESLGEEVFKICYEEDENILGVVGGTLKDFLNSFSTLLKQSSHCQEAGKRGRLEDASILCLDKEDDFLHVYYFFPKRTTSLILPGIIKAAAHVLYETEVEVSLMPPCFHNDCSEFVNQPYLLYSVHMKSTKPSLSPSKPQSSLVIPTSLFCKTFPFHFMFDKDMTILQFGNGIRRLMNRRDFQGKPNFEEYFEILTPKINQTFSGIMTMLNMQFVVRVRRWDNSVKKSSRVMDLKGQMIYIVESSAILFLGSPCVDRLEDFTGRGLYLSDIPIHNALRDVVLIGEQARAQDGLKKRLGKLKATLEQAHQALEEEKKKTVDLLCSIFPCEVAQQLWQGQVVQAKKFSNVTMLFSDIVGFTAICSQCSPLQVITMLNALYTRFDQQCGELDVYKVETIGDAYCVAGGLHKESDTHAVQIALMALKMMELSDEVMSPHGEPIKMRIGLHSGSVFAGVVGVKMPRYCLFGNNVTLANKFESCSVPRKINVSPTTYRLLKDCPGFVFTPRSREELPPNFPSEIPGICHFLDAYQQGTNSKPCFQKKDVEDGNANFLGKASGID
Experiment: cGMP GloSensor cell-based assay, 384-well format
Details: 10 μM DETA-NONOate, normalized to 30 μM Compound Y
Description: Human embryonic kidney cells (HEK293) cells expressing GloSensor™ 40F cGMP (Part No: CS182801, Promega) were used to evaluate the activity of test compounds. The luminescent biosensors (engineered luciferase) that were incorporated into these cells detect cGMP formed by the compounds stimulating the sGC enzyme and emit luminescence.
cGMP GloSensor cells were maintained in Dulbecco's Modification of Eagle's Medium (DMEM) supplemented with fetal bovine serum (FBS, 10% final) and hygromycine (200 ug/ml). […] Cells were incubated overnight at 37° C. in a humidified chamber with 5% CO2. The next day, medium was removed and cells were replaced with 40 ul/well of GloSensor™, 2 mM (Promega Cat No E1291). Cells were treated for 90 minutes at 25° C. to allow the substrate to equilibrate in the cells. […] For endpoint SAR screening, data were collected after 55 min incubation at room temperature.
Data were fit using a 4-parameter fit (log(agonist) vs. response—variable slope) using GraphPad Prism Software v.5. n=2 for all compounds. […] Compounds failing to elicit a minimum response of 50% are reported as >30 μM or ND.

[1] = HEK293 cells expressing GloSensor 40F cGMP, compounds in Table IA, read-out: Glo-sensor AbsEC50
[2] = HEK293 cells expressing GloSensor 40F cGMP, compounds in Table IB, read-out: Glo-sensor Abs EC50

SMILES: Fc1ccccc1Cn1nc(-c2nc(C(F)(F)F)n[nH]2)c2nccnc21 [Compound I-98, 1-(2-Fluorobenzyl)-3-(3-(trifluoromethyl)-1H-1,2,4-triazol-5-yl)-1H-pyrazolo[3,4-b]pyrazine]
EC50 [1]: > 1000 nM

SMILES: Cc1ncc(Cc2nc(-c3nc(C(F)(F)F)n[nH]3)n3ccc(Cl)cc23)cn1 [Compound I-29, 7-Chloro-1-((2-methylpyrimidin-5-yl)methyl)-3-(3-(trifluoromethyl)-1H-1,2,4-triazol-5-yl)imidazo[1,5-a]pyridine]
EC50 [2]: 100 to 1000 nM

SMILES: Fc1ccccc1Cn1nc(-c2ncn[nH]2)c2cccnc21 [Compound I-25]
EC50 (Glo-sensor AbsEC50, HEK293 cells expressing GloSensor 40F cGMP, compounds in Table IA): 100 to 1000 nM

SMILES: CC1(c2n[nH]c(-c3nn(Cc4ccccc4F)c4ncccc34)n2)COC1 [Compound I-70, 1-(2-fluorobenzyl)-3-(3-(3-methyloxetan-3-yl)-1H-1,2,4-triazol-5-yl)-1H-pyrazolo[3,4-b]pyridine]
EC50 [1]: 100 to 1000 nM and > 1000 nM

SMILES: Cc1ncc(Cn2nc(-c3nc(C(F)(F)F)n[nH]3)c3ncccc32)cn1 [Compound I-38]
EC50 [1]: > 1000 nM

SMILES: CC1(c2n[nH]c(-c3nn(Cc4ccccc4F)c4ncccc34)n2)CC1(F)F (stereo not shown) [Compound I-87, 3-(3-(2,2-Difluoro-1-methylcyclopropyl)-1H-1,2,4-triazol-5-yl)-1-(2-fluorobenzyl)-1H-pyrazolo[3,4-b]pyridine]
EC50 [1]: 100 to 1000 nM

SMILES: Nc1n[nH]c(-c2nn(Cc3ccccc3F)c3ncccc23)n1 [Compound I-84, 5-(1-(2-fluorobenzyl)-1H-pyrazolo[3,4-b]pyridin-3-yl)-1H-1,2,4-triazol-3-amine]
EC50 [1]: 100 to 1000 nM

SMILES: FC(F)(F)CCn1nc(-c2nc(C(F)(F)F)n[nH]2)c2cccnc21 [Compound I-7, 3-(3-(Trifluoromethyl)-1H-1,2,4-triazol-5-yl)-1-(3,3,3-trifluoropropyl)-1H-pyrazolo[3,4-b]pyridine]
EC50 [1]: > 1000 nM

SMILES: CC(=O)NCc1n[nH]c(-c2nn(Cc3ccccc3F)c3ncccc23)n1 [Compound I-124, N-((5-(1-(2-fluorobenzyl)-1H-pyrazolo[3,4-b]pyridin-3-yl)-1H-1,2,4-triazol-3-yl)methyl)acetamide]
EC50 [1]: 100 to 1000 nM

SMILES: Cc1ncc(Cc2nc(-c3nc(C(F)(F)F)n[nH]3)n3cc(Cl)cc(F)c23)cn1 [Compound I-27, 6-Chloro-8-fluoro-1-((2-methylpyrimidin-5-yl)methyl)-3-(3-(trifluoromethyl)-1H-1,2,4-triazol-5-yl)imidazo[1,5-a]pyridine]
EC50 [2]: > 1000 nM

SMILES: Fc1cccnc1Cn1nc(-c2nc(C(F)(F)F)n[nH]2)c2cccnc21 [Compound I-13, 1-((3-Fluoropyridin-2-yl)methyl)-3-(3-(trifluoromethyl)-1H-1,2,4-triazol-5-yl)-1H-pyrazolo[3,4-b]pyridine]
EC50 [1]: 100 to 1000 nM

SMILES: Fc1ccccc1Cn1nc(-c2nc(-c3ccccc3)n[nH]2)c2cccnc21 [Compound I-39]
EC50 [1]: > 1000 nM

SMILES: Fc1cccn2c(-c3nc(C(F)(F)F)n[nH]3)nc(Cc3cncnc3)c12 [Compound I-15, 8-Fluoro-1-(pyrimidin-5-ylmethyl)-3-(3-(trifluoromethyl)-1H-1,2,4-triazol-5-yl)imidazo[1,5-a]pyridine]
EC50 [2]: < 100 nM

SMILES: Fc1ccccc1Cn1nc(-c2nc(C3(C(F)(F)F)CC3)n[nH]2)c2cccnc21 [Compound I-59, 1-(2-fluorobenzyl)-3-(3-(1-(trifluoromethyl)cyclopropyl)-1H-1,2,4-triazol-5-yl)-1H-pyrazolo[3,4-b]pyridine]
EC50 [1]: 100 to 1000 nM

SMILES: CC(C)(C)OC(=O)NC1(c2n[nH]c(-c3nn(Cc4ccccc4F)c4ncccc34)n2)COC1 [Compound I-76, tert-Butyl (3-(5-(1-(2-fluorobenzyl)-1H-pyrazolo[3,4-b]pyridin-3-yl)-1H-1,2,4-triazol-3-yl)oxetan-3-yl)carbamate]
EC50 [1]: 100 to 1000 nM

SMILES: O=C(CC(F)(F)F)Nc1n[nH]c(-c2nn(Cc3ccccc3F)c3ncccc23)n1 [Compound I-126]
EC50 [1]: > 1000 nM

SMILES: Cc1ncc(Cc2nc(-c3nc(C(F)(F)F)n[nH]3)n3cc(F)ccc23)cn1 [Compound I-23, 6-Fluoro-1-((2-methylpyrimidin-5-yl)methyl)-3-(3-(trifluoromethyl)-1H-1,2,4-triazol-5-yl)imidazo[1,5-a]pyridine pyridine]
EC50 [2]: 100 to 1000 nM

More lines, now with the values ahead:

EC50 [1]: 100 to 1000 nM
SMILES: FCCN1CC(c2n[nH]c(-c3nn(Cc4ccccc4F)c4ncccc34)n2)C1 [Compound I-97, 1-(2-Fluorobenzyl)-3-(3-(1-(2-fluoroethyl)azetidin-3-yl)-1H-1,2,4-triazol-5-yl)-1H-pyrazolo[3,4-b]pyridine]

EC50 [1]: 100 to 1000 nM
SMILES: FC(F)(F)c1n[nH]c(-c2nn(CCC(F)(F)C(F)(F)F)c3cc(Cl)ccc23)n1 [Compound I-3, 6-chloro-1-(3,3,4,4,4-pentafluorobutyl)-3-(3-(trifluoromethyl)-1H-1,2,4-triazol-5-yl)-1H-indazole]

EC50 [1]: 100 to 1000 nM
SMILES: Fc1cc(F)cc(Cc2nn(-c3nc(C(F)(F)F)n[nH]3)c3cccnc23)c1 [Compound I-121, 3-(3,5-Difluorobenzyl)-1-(3-(trifluoromethyl)-1H-1,2,4-triazol-5-yl)-1H-pyrazolo[4,3-b]pyridine]

EC50 [1]: < 100 nM
SMILES: Fc1cccc(F)c1Cn1nc(-c2nc(C(F)(F)F)n[nH]2)c2cccnc21 [Compound I-42]

EC50 [1]: < 100 nM
SMILES: Fc1ccc(Cn2nc(-c3nc(C(F)(F)F)n[nH]3)c3cccnc32)cc1 [Compound I-53, 1-(4-Fluorobenzyl)-3-(3-(trifluoromethyl)-1H-1,2,4-triazol-5-yl)-1H-pyrazolo[3,4-b]pyridine]

EC50 [1]: < 100 nM
SMILES: CC(O)c1n[nH]c(-c2nn(Cc3ccccc3F)c3ncccc23)n1 (stereo not shown) [Compound I-107, 1-(5-(1-(2-Fluorobenzyl)-1H-pyrazolo[3,4-b]pyridin-3-yl)-1H-1,2,4-triazol-3-yl)ethanol]

EC50 [1]: < 100 nM
SMILES: OC1(c2n[nH]c(-c3nn(Cc4ccccc4F)c4ncccc34)n2)CC1 [Compound I-104, 1-(5-(1-(2-Fluorobenzyl)-1H-pyrazolo[3,4-b]pyridin-3-yl)-1H-1,2,4-triazol-3-yl)cyclopropanol]

EC50 [1]: < 100 nM
SMILES: Fc1ccccc1Cn1nc(-c2nc(CC(F)(F)F)n[nH]2)c2cccnc21 [Compound I-26, 1-(2-Fluorobenzyl)-3-(3-(2,2,2-trifluoroethyl)-1H-1,2,4-triazol-5-yl)-1H-pyrazolo[3,4-b]pyridine]

EC50 [1]: < 100 nM
SMILES: CC(C)(C)c1n[nH]c(-c2nn(Cc3ccccc3F)c3ncccc23)n1 [Compound I-37, 3-(3-(tert-Butyl)-1H-1,2,4-triazol-5-yl)-1-(2-fluorobenzyl)-1H-pyrazolo[3,4-b]pyridine]

EC50 [1]: < 100 nM
SMILES: Cc1ccc2c(-c3nc(C(F)(F)F)n[nH]3)nn(Cc3cccc(F)c3F)c2n1 [Compound I-85, 1-(2,3-Difluorobenzyl)-6-methyl-3-(3-(trifluoromethyl)-1H-1,2,4-triazol-5-yl)-1H-pyrazolo[3,4-b]pyridine]

EC50 [1]: < 100 nM
SMILES: Fc1ccc(F)c(Cn2nc(-c3nc(C(F)(F)F)n[nH]3)c3cccnc32)c1 [Compound I-14, 1-(2,5-Difluorobenzyl)-3-(3-(trifluoromethyl)-1H-1,2,4-triazol-5-yl)-1H-pyrazolo[3,4-b]pyridine]
